Results on 19 compounds are retold here after US12195467B2, “Compound having TrkA inhibitory activity and pharmaceutical composition, for preventing or alleviating pain, containing same as active ingredient” (JBKLAB CO., LTD., priority 2018, dated 2025).

Broadly, the inhibition is the drop in the measured response relative to a control, in per cent. In general, IC50 refers to the concentration that inhibits the measured activity by half. The ED50 is the midpoint of the dose-response relation. A higher ED50 goes with a need for a large dose.

One assay deals with T1, TrkA (Homo sapiens, UniProt P04629).
T1 construct: purchased MBL International (CycLex) CY-1091
T1 sequence (P04629 33-796): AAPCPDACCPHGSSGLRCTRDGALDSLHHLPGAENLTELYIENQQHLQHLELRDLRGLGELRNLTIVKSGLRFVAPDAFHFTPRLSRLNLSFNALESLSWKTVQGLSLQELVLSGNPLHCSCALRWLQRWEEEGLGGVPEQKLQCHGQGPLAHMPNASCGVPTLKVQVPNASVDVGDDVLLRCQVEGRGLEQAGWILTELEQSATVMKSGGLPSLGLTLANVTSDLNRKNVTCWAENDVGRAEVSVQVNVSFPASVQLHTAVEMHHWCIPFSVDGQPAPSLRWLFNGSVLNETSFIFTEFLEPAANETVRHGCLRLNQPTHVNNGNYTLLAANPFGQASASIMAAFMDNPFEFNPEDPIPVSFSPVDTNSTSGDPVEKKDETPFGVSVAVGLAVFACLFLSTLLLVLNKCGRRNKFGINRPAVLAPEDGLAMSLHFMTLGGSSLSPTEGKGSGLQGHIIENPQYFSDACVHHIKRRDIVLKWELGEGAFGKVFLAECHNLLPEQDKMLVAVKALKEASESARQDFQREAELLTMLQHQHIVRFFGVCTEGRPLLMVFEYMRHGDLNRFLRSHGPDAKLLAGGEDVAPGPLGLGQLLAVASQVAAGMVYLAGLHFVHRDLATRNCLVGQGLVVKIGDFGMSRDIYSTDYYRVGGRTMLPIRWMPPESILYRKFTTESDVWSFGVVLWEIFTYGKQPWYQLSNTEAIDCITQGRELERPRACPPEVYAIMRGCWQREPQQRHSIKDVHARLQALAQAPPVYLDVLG
As to the kind of experiment: TrkA inhibitory activity, CycLex TrkA kinase assay/inhibitor screening kit. The format is biochemical. As to conditions: for inhibition at 1 µM: compound 1 μM, read-out: % inhibition rate (based on 1 μM). The method, then:
The TrkA inhibitory activity of the compounds was evaluated using CycLex® TrkA kinase assay/inhibitor screening kit of MBL International (Cat No. CY-1091). The test was carried out according to the analysis method provided by the manufacturer. The test method is as follows.
1. 1× wash buffer was prepared by diluting 10× wash buffer in ddH2O.
2. 20×ATP solution (1.25 mM) was prepared by adding 1.6 mL of distilled water to the tube containing ATP dissolved in NA2 salt and freeze-dried.
4. A working solution mixture and a solution of the appropriate concentration of the example compound to evaluate the activity of the example compound were prepared and dispensed into a 96-well plate as shown in table below.
5. After dispensing the solutions into a 96-well plate, the plate was incubated at 30° C. for 30 minutes.
6. After incubation of the plate at 30° C. for 30 minutes, 200 μL of 1× wash buffer was added into each well of the plate, followed by washing. This process was repeated 5 times.
7. After washing the plate, 100 μL of HRP conjugated detection antibody (PX-39) was added into each well of the plate, followed by reaction at room temperature for 60 minutes.
8. Upon completion of the reaction, 200 μL of 1× wash buffer was added into each well of the plate, followed by washing. This process was repeated 5 times.
9. After washing the plate, 100 μL of substrate reagent containing chromogenic substrate and tetra-methylbenzidine (TMB) was added into each well of the plate, followed by incubation at room temperature for 5-15 minutes.
10. Upon completion of the reaction, 100 μL of stop solution (1 N H2SO4) was added into each well of the plate, followed by measuring OD450 within 30 minutes.

For another assay, the target named is T2, TrkB (Homo sapiens, UniProt Q16620).
T2 construct: host or cells: U2OS
T2 sequence (Q16620 32-822): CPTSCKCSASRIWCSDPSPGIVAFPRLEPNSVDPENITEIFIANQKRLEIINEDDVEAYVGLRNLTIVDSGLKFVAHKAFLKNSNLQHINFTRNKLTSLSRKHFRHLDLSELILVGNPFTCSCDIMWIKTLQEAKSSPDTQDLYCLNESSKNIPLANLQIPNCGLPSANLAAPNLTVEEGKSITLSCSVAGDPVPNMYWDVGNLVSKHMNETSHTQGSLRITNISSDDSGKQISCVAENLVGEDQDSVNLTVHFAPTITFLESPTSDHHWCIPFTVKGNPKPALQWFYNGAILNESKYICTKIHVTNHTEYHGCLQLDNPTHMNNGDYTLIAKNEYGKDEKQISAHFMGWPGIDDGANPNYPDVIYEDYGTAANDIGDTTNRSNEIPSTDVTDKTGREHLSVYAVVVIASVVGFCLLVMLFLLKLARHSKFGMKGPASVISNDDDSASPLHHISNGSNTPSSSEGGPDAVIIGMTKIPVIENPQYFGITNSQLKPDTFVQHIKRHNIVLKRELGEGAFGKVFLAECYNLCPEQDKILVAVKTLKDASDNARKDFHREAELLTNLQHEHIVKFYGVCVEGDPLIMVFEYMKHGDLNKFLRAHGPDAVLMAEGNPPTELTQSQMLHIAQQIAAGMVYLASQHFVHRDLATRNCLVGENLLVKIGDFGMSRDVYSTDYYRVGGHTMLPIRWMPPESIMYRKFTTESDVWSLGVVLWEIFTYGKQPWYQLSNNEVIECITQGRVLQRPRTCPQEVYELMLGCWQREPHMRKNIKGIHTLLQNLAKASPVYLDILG
Kind of assay: PathHunter eXpress TrkB functional assay kit (U2OS cells, agonist BDNF). The settings on record: compound 1 μM, read-out: TrkB % inhibition rate (based on 1 μM). The format is cell-based. Here is the method:
(§1) The inhibitory activity of the example compounds against TrkB and TrkC was evaluated using PathHunter® eXpress TrkB or TrkC functional assay kit (Product Code: 93-0463E3 and 93-0464E3) of DiscoverX. The test was carried out according to the analysis method provided by the manufacturer. The test was carried out as follows over 2 or 3 days depending on the conditions of cells.
(§2) 1. Before starting the experiment, the cell plating (CP) reagent stored at −80° C. was dissolved in a 37° C. water bath.
(§3) 2. When the CP reagent was dissolved, cell vials for TrkB or TrkC were prepared to be dissolved.
(§4) 3. Two U2OS cell vials (TrkB kit & TrkC kit) stored in liquid nitrogen were thawed.
(§5) 4. 500 μL of CP reagent was added to the thawed cell vial, and the cells were sufficiently mixed by pipetting and transferred to a Conical tube in which 11.5 mL of CP reagent was dispensed.
(§6) 5. 12 mL cells (1×10^6 cells in CP reagent) were seeded on a 96-well tissue culture treated plate (100 μL/well), followed by culture in a 37° C., 5% CO2 humidified incubator for 24 hours or 48 hours.
(§7) Day 2 or Day 3: Treatment of Test Material
(§8) 1. Test material, agonist and antagonist were prepared as stock solutions according to the experiment design. • Test material: 10 mM Stock solution in DMSO • Antagonist (GNF-5837): 10 mM Stock solution in 1.8674 mL DMSO • Agonist: TrkB agonist→BDNF, TrkC agonist→NT-3
(§9) 2. 10 mM stock solutions of teat material and antagonist having the concentration of 22 times more concentrated than the final screening concentration were prepared according to the experiment design.
(§10) 3. Each well of the 96-well culture plate containing cells was treated with 5 μL of the solutions of teat material and antagonist having the concentration of 22 times more concentrated than the final screening concentration (#2), followed by incubation at 37° C. for 60 minutes.
(§11) 4. During the incubation, 10 μg/mL stock solution of each agonist for TrkB and TrkC was prepared using a reconstitution buffer for the purpose of the experiment, and each well of the plate was treated with 5 μL of the prepared solution, followed by incubation at 19-25° C. for 3 hours.
(§12) 5. During the incubation, a detection reagent working solution (4.75 ml Cell assay buffer, 1.25 ml Substrate Reagent 1, 0.25 ml Substrate Reagent 2) was prepared. Upon completion of the incubation, 55 μL of the working solution was added into each well of the plate.
(§13) 7. The plate was incubated at room temperature for 60 minutes in a dark place, and the […] was measured with a luminescence plate reader.

A further assay addresses T3, TrkC (Homo sapiens, UniProt Q16288).
T3 construct: host or cells: U2OS
Kind of assay: PathHunter eXpress TrkC functional assay kit (U2OS cells, agonist NT-3). The format is cell-based. As to conditions: compound 1 μM, read-out: TrkC % inhibition rate (based on 1 μM). Here is the method: as §1, §2, §3, §4, §5, §6, §7, §8, §9, §10, §11, §12, §13

Assay [1] has as its system postoperative pain animal model. As to the kind of experiment: Pharmacological activity in postoperative pain model (von-Frey mechanical allodynia, 50% withdrawal threshold). The format is in vivo, Sprague-Dawley male rats. The method, then:
Sprague-Dawley male rats weighing around 150 g (Orient bio., Korea) were used. Rats were raised in an environment where a 12-hour light-dark cycle was maintained, 4 per transparent plastic cage covered with scob as bedding. Food and water were provided freely. To verify the analgesic effect of the example compounds, all rats were anesthetized with O2 delivered from the induction chamber at a ratio of 3:3 of isoflurane and operated. Anesthetized rats were placed on a 37° C. warm plate to prevent hypothermia during the operation. The ipsilateral sole (left) of the hind paw of the experimental animal was disinfected with 10% povidone-iodine solution, and incised to a length of 1 cm with a #11 surgical knife. The incision was made starting from 0.5 cm of the proximal edge of the heel through the skin and fascia on the side of the ipsilateral sole toward the toe. After the incision, a gentle pressure was applied to the incision site to stop the bleeding and the skin was sutured. The surgical site was sterilized with 10% povidone-iodine solution, and gentamicin (8 mg/kg) was administered intraperitoneally to prevent infection. The analgesic effect of the compound on postoperative pain was evaluated in the experimental animals 2 days after the surgery. […] The formula for calculating the 50% withdrawal threshold (g) is as follows. 50% Withdrawal threshold (g)=(10^(x+kd))/10^4 [Mathematical Formula 1] • x=the value of the last tested filament (log unit value). • k=the value indicating positive/negative reaction by up-down method. • d=the value fixed at 0.224 as the average difference between stimuli.

T3 sequence (Q16288 32-839): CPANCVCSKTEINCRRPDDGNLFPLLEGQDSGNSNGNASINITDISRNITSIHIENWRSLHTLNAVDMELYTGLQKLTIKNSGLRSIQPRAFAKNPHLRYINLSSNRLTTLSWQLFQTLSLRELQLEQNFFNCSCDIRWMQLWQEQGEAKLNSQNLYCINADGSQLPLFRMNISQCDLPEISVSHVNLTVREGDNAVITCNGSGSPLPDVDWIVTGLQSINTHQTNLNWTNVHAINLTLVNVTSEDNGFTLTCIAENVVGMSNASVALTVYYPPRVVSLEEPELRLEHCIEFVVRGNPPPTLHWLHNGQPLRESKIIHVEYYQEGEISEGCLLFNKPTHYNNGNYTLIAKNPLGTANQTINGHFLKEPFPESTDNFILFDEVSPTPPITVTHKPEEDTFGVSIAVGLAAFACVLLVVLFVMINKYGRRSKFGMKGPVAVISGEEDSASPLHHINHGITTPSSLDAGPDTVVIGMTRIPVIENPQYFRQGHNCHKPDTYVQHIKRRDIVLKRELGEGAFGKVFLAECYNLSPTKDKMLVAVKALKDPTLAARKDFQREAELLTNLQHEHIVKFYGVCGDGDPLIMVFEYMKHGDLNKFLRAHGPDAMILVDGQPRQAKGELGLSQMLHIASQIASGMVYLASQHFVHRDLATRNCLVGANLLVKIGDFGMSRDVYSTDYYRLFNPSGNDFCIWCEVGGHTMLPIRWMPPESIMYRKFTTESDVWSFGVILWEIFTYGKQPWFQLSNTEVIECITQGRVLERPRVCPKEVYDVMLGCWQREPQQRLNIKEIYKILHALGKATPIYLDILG

For `Clc1cccc(Nc2n[nH]c3cnc(-c4cccnc4)cc23)c1` [Example 1, N-(3-chlorophenyl)-5-(pyridine-3-yl)-1H-pyrazolo[3,4-c]pyridine-3-amine], the inhibition at 1 µM on TrkA stood at 12%.
Turning to `Clc1ccc(Nc2n[nH]c3cnc(-c4cnn(C5CCNCC5)c4)cc23)cc1Cl` [Example 2, N-(3,4-dichlorophenyl)-5-(1-(piperidine-4-yl)-1H-pyrazole-4-yl)-1H-pyrazolo[3,4-c]pyridine-3-amine], the inhibition at 1 µM on TrkA was found to be 6%.
On the same count and under the same terms, then `Clc1cc(Cl)cc(Nc2n[nH]c3cnc(-c4cnn(C5CCNCC5)c4)cc23)c1` [Example 3, N-(3,5-dichlorophenyl)-5-(1-(piperidine-4-yl)-1H-pyrazole-4-yl)-1H-pyrazolo[3,4-c]pyridine-3-amine], with 6%; and `Cn1cc(-c2cnc3[nH]nc(Nc4cccc(Cl)c4)c3c2)cn1` [Example 4, N-(3-chlorophenyl)-5-(1-methyl-1H-pyrazole-4-yl)-1H-pyrazolo[3,4-b]pyridine-3-amine], with 59%; and `Cn1cc(-c2cnc3[nH]nc(Nc4ccc(Cl)c(Cl)c4)c3c2)cn1` [Example 5, N-(3,4-dichlorophenyl)-5-(1-methyl-1H-pyrazole-4-yl)-1H-pyrazolo[3,4-b]pyridine-3-amine], with 32%.
Still for that read-out and setting: then `Cn1cc(-c2cnc3[nH]nc(Nc4cc(Cl)cc(Cl)c4)c3c2)cn1` [Example 6, N-(3,5-dichlorophenyl)-5-(1-methyl-1H-pyrazole-4-yl)-1H-pyrazolo[3,4-b]pyridine-3-amine], with 32%.
For `Clc1cc(Cl)cc(Nc2n[nH]c3ncc(-c4cnn(C5CCNCC5)c4)cc23)c1` [Example 7, N-(3,5-dichlorophenyl)-5-(1-(piperidine-4-yl)-1H-pyrazole-4-yl)-1H-pyrazolo[3,4-b]pyridine-3-amine], the inhibition at 1 µM on TrkA came out at 37%.
For `CN1CCN(c2ccc(C(=O)Nc3n[nH]c4ncc(-c5cnn(C6CCNCC6)c5)cc34)cc2)CC1` [Example 8, 4-(4-methylpiperazine-1-yl)-N-(5-(1-(piperidine-4-yl)-1H-pyrazole-4-yl)-1H-pyrazolo[3,4-b]pyridine-3-yl)benzamide], the inhibition at 1 µM at TrkA amounted to 99%.
`CC(C)NC(=O)Nc1cccc(-c2cnc3[nH]nc(NC(=O)c4ccc(N5CCN(C)CC5)cc4)c3c2)c1` [Example 9, N-(5-(3-(3-isopropylureido)phenyl)-1H-pyrazolo[3,4-b]pyridine-3-yl)-4-(4-methylpiperazine-1-yl)benzamide]: the inhibition at 1 µM was 81% on TrkA, 1% at TrkB and -20% at TrkC.
On to `CN1CCN(c2ccc(C(=O)Nc3n[nH]c4ncc(-c5ccc(F)cc5)cc34)cc2)CC1` [Example 11, N-(5-(4-fluorophenyl)-1H-pyrazolo[3,4-b]pyridine-3-yl)-4-(4-methylpiperazine-1-yl)benzamide], for which it took 218 nM to reach half-maximal inhibition on TrkA (IC50). Further, the inhibition at 1 µM at TrkA was 99%; at TrkB, 17%; on TrkC it was 9%.
As for `COc1ccc(Cn2cc(NC(=O)c3ccc(N4CCN(C)CC4)cc3)c3c(-c4cnn(C5CCNCC5)c4)ncnc32)cc1` [Example 16, N-(7-(4-methoxybenzyl)-4-(1-(piperidine-4-yl)-1H-pyrazole-4-yl)-7H-pyrrolo[2,3-d]pyrimidine-5-yl)-4-(4-methylpiperazine-1-yl)benzamide], the inhibition at 1 µM at TrkA is 8%.
Take `CN1CCN(c2ccc(C(=O)Nc3c[nH]c4ncnc(-c5cnn(C6CCNCC6)c5)c34)cc2)CC1` [Example 17, 4-(4-methylpiperazine-1-yl)-N-(4-(1-(piperidine-4-yl)-1H-pyrazole-4-yl)-7H-pyrrolo[2,3-d]pyrimidine-5-yl)benzamide]: the inhibition at 1 µM on TrkA is -11%.
The same measure, in the same setting: the same measure for `CN1CCN(c2ccc(C(=O)Nc3c[nH]c4ncnc(-c5cnn(C6CCN(C(=O)OC(C)(C)C)CC6)c5)c34)cc2)CC1` [Example 18, tert-butyl 4-(4-(5-(4-(4-methylpiperazine-1-yl)benzamido)-7H-pyrrolo[2,3-d]pyrimidine-4-yl)-1H-pyrazole-1-yl)piperidine-1-carboxylate]: 24%.
For the compound `CN1CCN(c2ccc(C(=O)Nc3c[nH]c4ncnc(N5CCC(N6CCCC6)CC5)c34)cc2)CC1` [Example 19, 4-(4-methylpiperazine-1-yl)-N-(4-(4-(pyrrolidine-1-yl)piperidine-1-yl)-7H-pyrrolo[2,3-d]pyrimidine-5-yl)benzamide], on TrkA, the inhibition at 1 µM was -1%.
Still for that read-out and setting: then `CN1CCN(c2ccc(C(=O)Nc3c[nH]c4ncnc(N5CCC(C(N)=O)CC5)c34)cc2)CC1` [Example 20, 1-(5-(4-(4-methylpiperazine-1-yl)benzamido)-7H-pyrrolo[2,3-d]pyrimidine-4-yl)piperidine-4-carboxamide], with 4%.
Take `CN1CCN(c2ccc(C(=O)Nc3c[nH]c4ncnc(N5CCCC(NC(N)=O)C5)c34)cc2)CC1` (stereo not shown) [Example 21, 4-(4-methylpiperazine-1-yl)-N-(4-(3-ureidopiperidine-1-yl)-7H-pyrrolo[2,3-d]pyrimidine-5-yl)benzamide]: at TrkA, the inhibition at 1 µM turned out to be 0%.
Take `O=C(Nc1n[nH]c2ncc(-c3cnn(C4CCNCC4)c3)cc12)c1ccc(F)cc1` [Example 22, 4-fluoro-N-(5-(1-(piperidine-4-yl)-1H-pyrazole-4-yl)-1H-pyrazolo[3,4-b]pyridine-3-yl)benzamide]: at TrkA, the IC50 was 436 nM. Also, the inhibition at 1 µM on TrkA is 99%; on TrkB, -2%; on TrkC, 20%.
On to `CN1CCN(c2ccc(C(=O)Nc3c[nH]c4ncnc(-c5cc(Cl)c(O)c(Cl)c5)c34)cc2)CC1` [Example 24, N-(4-(3,5-dichloro-4-hydroxyphenyl)-7H-pyrrolo[2,3-d]pyrimidine-5-yl)-4-(4-methylpiperazine-1-yl)benzamide], for which, at TrkA, the inhibition at 1 µM came out at 49%.
For `CC(C)C[C@H](CN)CC(=O)O` [Lyrica, Pregabalin, reference compound], the 50% effect level in assay [1] (Rattus norvegicus, po, 48 h) (ED50) was put at a dose of 17.5 mg/kg. In addition, the “Maximum duration of drug efficacy” value in assay [1] (oral, rat postoperative pain model, 2 days after surgery) came to 1.0 h.
